Target: CRBN-DDB1 (Homo sapiens (Human), UniProt Q96SW2)
Assay: CRBN-DDB1 fluorescence polarization (FP) binding assay
Settings: Table 2 Degrons; displacement of Thalidomide-Alexa Fluor or Pomalidomide-fluorescein probe
Experimental: Measuring compound ligand binding to CRBN-DDB1 was carried out using an established sensitive and quantitative in vitro fluorescence polarization (FP) based binding assay. […] Compounds were dispensed from serially diluted DMSO stock into black 384-well compatible fluorescence polarization plates using an Echo acoustic dispenser. […] Matching control wells excluding CRBN-DDB1 were used to correct for background fluorescence. Plates were read on an Envision plate reader with appropriate FP filter sets.

CRBN-DDB1, sequence (Q96SW2 whole entry, looked up): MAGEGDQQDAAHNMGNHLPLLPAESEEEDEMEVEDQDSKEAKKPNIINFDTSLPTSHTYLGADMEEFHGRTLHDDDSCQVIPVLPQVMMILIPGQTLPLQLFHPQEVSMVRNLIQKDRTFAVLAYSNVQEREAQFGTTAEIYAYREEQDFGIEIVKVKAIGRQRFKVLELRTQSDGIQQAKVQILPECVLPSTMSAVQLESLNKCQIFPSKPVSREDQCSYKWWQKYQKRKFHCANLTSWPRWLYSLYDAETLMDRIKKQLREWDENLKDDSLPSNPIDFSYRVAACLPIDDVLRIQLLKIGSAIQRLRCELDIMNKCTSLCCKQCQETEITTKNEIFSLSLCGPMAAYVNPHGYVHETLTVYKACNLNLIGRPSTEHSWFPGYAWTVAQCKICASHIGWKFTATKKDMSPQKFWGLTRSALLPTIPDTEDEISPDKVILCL
CRBN-DDB1, sequence (Q16531 whole entry partner, looked up): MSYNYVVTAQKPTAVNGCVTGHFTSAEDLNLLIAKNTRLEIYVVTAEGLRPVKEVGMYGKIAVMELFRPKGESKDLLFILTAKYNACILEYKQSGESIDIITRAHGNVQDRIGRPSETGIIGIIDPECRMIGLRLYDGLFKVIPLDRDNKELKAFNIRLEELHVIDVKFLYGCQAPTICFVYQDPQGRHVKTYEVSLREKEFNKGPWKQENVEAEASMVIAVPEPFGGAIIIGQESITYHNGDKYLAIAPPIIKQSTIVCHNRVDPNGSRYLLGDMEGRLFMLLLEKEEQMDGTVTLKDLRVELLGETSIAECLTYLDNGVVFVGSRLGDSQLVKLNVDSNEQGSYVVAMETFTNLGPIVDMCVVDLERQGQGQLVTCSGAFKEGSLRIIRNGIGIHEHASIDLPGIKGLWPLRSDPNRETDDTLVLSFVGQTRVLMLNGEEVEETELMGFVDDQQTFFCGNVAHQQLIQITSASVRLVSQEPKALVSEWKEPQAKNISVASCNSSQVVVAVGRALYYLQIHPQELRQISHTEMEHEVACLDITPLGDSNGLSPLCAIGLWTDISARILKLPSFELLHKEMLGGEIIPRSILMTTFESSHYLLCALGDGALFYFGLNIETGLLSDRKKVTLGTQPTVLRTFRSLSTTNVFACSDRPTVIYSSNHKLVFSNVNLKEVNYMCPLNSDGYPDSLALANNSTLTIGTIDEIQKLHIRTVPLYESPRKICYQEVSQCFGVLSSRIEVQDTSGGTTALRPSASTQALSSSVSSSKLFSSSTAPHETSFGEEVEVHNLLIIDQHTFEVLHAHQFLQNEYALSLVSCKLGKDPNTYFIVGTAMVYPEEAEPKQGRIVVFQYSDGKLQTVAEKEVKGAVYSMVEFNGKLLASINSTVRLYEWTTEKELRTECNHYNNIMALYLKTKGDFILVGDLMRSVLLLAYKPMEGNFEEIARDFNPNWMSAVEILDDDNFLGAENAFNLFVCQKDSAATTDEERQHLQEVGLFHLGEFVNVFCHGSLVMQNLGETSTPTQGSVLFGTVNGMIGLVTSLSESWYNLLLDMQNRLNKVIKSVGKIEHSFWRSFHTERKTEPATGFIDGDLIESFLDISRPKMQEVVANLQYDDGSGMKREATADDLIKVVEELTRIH

Kd: < 10 µM
Structure (SMILES): CC(C)(C)OC(=O)N1CCC(n2cc(CNc3cccc4c3C(=O)N(C3CCC(=O)NC3=O)C4=O)nn2)CC1 (stereo not shown) [Compound 264, tert-Butyl 4-(4-(((2-(2,6-Dioxopiperidin-3-yl)-1,3-dioxoisoindolin-4-yl)amino)methyl)-1H-1,2,3-triazol-1-yl)piperidine-1-carboxylate]
